Read-outs that look alike come from different tables or passages of the source.
Tested on: patients undergoing percutaneous coronary intervention (PCI)
Conditions: for Mortality/Q-wave MI/IDR / Mortality/Q-wave MI/Stent thrombosis: exploratory; for Angiographic complications (site reported): Abrupt vessel closure / Angiographic complications (site reported): Acute stent thrombosis / Angiographic complications (site reported): Need for urgent CABG / Angiographic complications (site reported): New thrombus or suspected thrombus / Angiographic complications (site reported): Threatened abrupt closure / Angiographic complications (site reported): Unsuccessful procedure: index PCI
Procedure: The diagnosis of non-ST-segment elevation myocardial infarction required troponin I or T greater than the upper limit of normal within 24 hours of randomization (or if troponin results were unavailable at that time, creatine kinase-myocardial band isoenzyme [CK-MB] greater than the upper limit of normal). The diagnosis of unstable angina required ischemic chest discomfort occurring at rest and lasting ≧10 minutes within the 24 hours prior to randomization and dynamic electrocardiographic changes; age ≧65 years and/or diabetes mellitus were also required.
The primary efficacy endpoint was the composite of mortality, myocardial infarction, or ischemia-driven revascularization at 48 hours. The primary analysis was performed on a modified intent-to-treat population. Confirmatory analyses were performed on an intent-to-treat population. Secondary endpoints included the individual rates of mortality, myocardial infarction, new Q-wave myocardial infarction, ischemia-driven revascularization, abrupt vessel closure, or stroke at 48 hours. Mortality at 30 days and 1 year was also recorded. The clinical events committee adjudicated myocardial infarction, Q-wave myocardial infarction, ischemia-driven revascularization, stent thromboses, and stroke (ischemic or hemorrhagic). The definition of stent thrombosis was similar to the Academic Research Consortium definition of definite stent thrombosis. After review of the prespecified analyses, two exploratory endpoints less reliant on periprocedural biomarker ascertainment were examined. The exploratory endpoints, which were composed of prespecified and adjudicated endpoints, were the composite of mortality, Q-wave myocardial infarction, or ischemia-driven revascularization and the composite of mortality, Q-wave myocardial infarction, or stent thrombosis. Bleeding and adverse events through 48 hours were compared.
All efficacy analyses were performed on the modified intent-to-treat population, defined as all randomized patients who received at least one dose of study drug and underwent the index PCI. All safety-related analyses were performed on the safety population, which included all patients who received at least one dose of assigned study drug. Patients in the safety analyses were assigned to a treatment arm based on treatment actually received, not as randomized. Intent-to-treat analyses are also presented for full disclosure of results. All statistical tests were two-tailed using a level of significance of 0.05. […] Logistic regression was also used to analyze the majority of the remaining secondary endpoints.

COC(=O)[C@H](c1ccccc1Cl)N1CCc2sccc2C1 [Clopidogrel, clopidogrel, reference compound]
All-cause mortality (30-day, ITT): 47 (1.8) no. (%) | IDR (30-day, ITT): 49 (1.8) no. (%) | MI (30-day, ITT): 202 (7.6) no. (%) | Mortality/MI/IDR (30-day, ITT): 254 (9.6) no. (%) | Q-wave MI (30-day, ITT): 15 (0.6) no. (%) | Stent thrombosis (30-day, ITT): 29 (1.1) no. (%) | Mortality/Q-wave MI/IDR (30-day, ITT): 94 (3.5) no. (%) | Mortality/Q-wave MI/Stent thrombosis (30-day, ITT): 77 (2.9) no. (%) | All-cause mortality (30-day, MITT): 45 (1.7) no. (%) | IDR (30-day, MITT): 46 (1.7) no. (%) | MI (30-day, MITT): 201 (7.6) no. (%) | Mortality/MI/IDR (30-day, MITT): 249 (9.5) no. (%) | Q-wave MI (30-day, MITT): 14 (0.5) no. (%) | Stent thrombosis (30-day, MITT): 28 (1.1) no. (%) | Mortality/Q-wave MI/IDR (30-day, MITT): 89 (3.4) no. (%) | Mortality/Q-wave MI/Stent thrombosis (30-day, MITT): 73 (2.8) no. (%) | All-cause mortality (30-day, Safety population): 45 (1.7) no. (%) | IDR (30-day, Safety population): 47 (1.8) no. (%) | MI (30-day, Safety population): 203 (7.7) no. (%) | Mortality/MI/IDR (30-day, Safety population): 251 (9.5) no. (%) | Q-wave MI (30-day, Safety population): 15 (0.6) no. (%) | Stent thrombosis (30-day, Safety population): 28 (1.1) no. (%) | Mortality/Q-wave MI/IDR (30-day, Safety population): 90 (3.4) no. (%) | Mortality/Q-wave MI/Stent thrombosis (30-day, Safety population): 74 (2.8) no. (%) | All-cause mortality (48-hour, ITT): 19 (0.7) no. (%) | IDR (48-hour, ITT): 26 (1.0) no. (%) | MI (48-hour, ITT): 192 (7.2) no. (%) | Mortality/MI/IDR (48-hour, ITT): 213 (8.0) no. (%) | Q-wave MI (48-hour, ITT): 9 (0.3) no. (%) | Stent thrombosis (48-hour, ITT): 16 (0.6) no. (%) | Stroke (48-hour, ITT): 6 (0.2) no. (%) | Mortality/Q-wave MI/IDR (48-hour, ITT): 44 (1.7) no. (%) | Mortality/Q-wave MI/Stent thrombosis (48-hour, ITT): 36 (1.4) no. (%) | All-cause mortality (48-hour, MITT): 18 (0.7) no. (%) | IDR (48-hour, MITT): 24 (0.9) no. (%) | MI (48-hour, MITT): 191 (7.2) no. (%) | Mortality/MI/IDR (primary endpoint) (48-hour, MITT): 210 (8.0) no. (%) | Q-wave MI (48-hour, MITT): 8 (0.3) no. (%) | Stent thrombosis (48-hour, MITT): 16 (0.6) no. (%) | Stroke (48-hour, MITT): 5 (0.2) no. (%) | Mortality/Q-wave MI/IDR (48-hour, MITT): 41 (1.6) no. (%) | Mortality/Q-wave MI/Stent thrombosis (48-hour, MITT): 34 (1.3) no. (%) | Mortality/Q-wave MI/IDR (48-hour, Safety population): 42 (1.6) no. (%) | Mortality/Q-wave MI/Stent thrombosis (48-hour, Safety population): 35 (1.3) no. (%) | All-cause mortality (48-hour, safety population): 18 (0.7) no. (%) | IDR (48-hour, safety population): 25 (0.9) no. (%) | MI (48-hour, safety population): 193 (7.3) no. (%) | Mortality/MI/IDR (48-hour, safety population): 212 (8.0) no. (%) | Q-wave MI (48-hour, safety population): 9 (0.3) no. (%) | Stent thrombosis (48-hour, safety population): 16 (0.6) no. (%) | Stroke (48-hour, safety population): 5 (0.2) no. (%) | Angiographic complications (site reported): Abrupt vessel closure (ITT): 16 (0.6) | Angiographic complications (site reported): Acute stent thrombosis (ITT): 5 (0.2) | Angiographic complications (site reported): Need for urgent CABG (ITT): 4 (0.2) | Angiographic complications (site reported): New thrombus or suspected thrombus (ITT): 15 (0.6) | Angiographic complications (site reported): Threatened abrupt closure (ITT): 9 (0.3) | Angiographic complications (site reported): Unsuccessful procedure (ITT): 97 (3.7) | Angiographic complications (site reported): Abrupt vessel closure (MITT): 16 (0.6) | Angiographic complications (site reported): Acute stent thrombosis (MITT): 5 (0.2) | Angiographic complications (site reported): Need for urgent CABG (MITT): 3 (0.1) | Angiographic complications (site reported): New thrombus or suspected thrombus (MITT): 15 (0.6) | Angiographic complications (site reported): Threatened abrupt closure (MITT): 9 (0.3) | Angiographic complications (site reported): Unsuccessful procedure (MITT): 95 (3.6) | Angiographic complications (site reported): Abrupt vessel closure (Safety population): 16 (0.6) | Angiographic complications (site reported): Acute stent thrombosis (Safety population): 5 (0.2) | Angiographic complications (site reported): Need for urgent CABG (Safety population): 3 (0.1) | Angiographic complications (site reported): New thrombus or suspected thrombus (Safety population): 15 (0.6) | Angiographic complications (site reported): Threatened abrupt closure (Safety population): 9 (0.3) | Angiographic complications (site reported): Unsuccessful procedure (Safety population): 95 (3.6)

— patent US8680052B1, “Methods of treating, reducing the incidence of, and/or preventing ischemic events” (The Medicines Company, priority 2013, dated 2014)
